SMILES strings stand for the structures.

T1 sequence (Q865E1 1-445): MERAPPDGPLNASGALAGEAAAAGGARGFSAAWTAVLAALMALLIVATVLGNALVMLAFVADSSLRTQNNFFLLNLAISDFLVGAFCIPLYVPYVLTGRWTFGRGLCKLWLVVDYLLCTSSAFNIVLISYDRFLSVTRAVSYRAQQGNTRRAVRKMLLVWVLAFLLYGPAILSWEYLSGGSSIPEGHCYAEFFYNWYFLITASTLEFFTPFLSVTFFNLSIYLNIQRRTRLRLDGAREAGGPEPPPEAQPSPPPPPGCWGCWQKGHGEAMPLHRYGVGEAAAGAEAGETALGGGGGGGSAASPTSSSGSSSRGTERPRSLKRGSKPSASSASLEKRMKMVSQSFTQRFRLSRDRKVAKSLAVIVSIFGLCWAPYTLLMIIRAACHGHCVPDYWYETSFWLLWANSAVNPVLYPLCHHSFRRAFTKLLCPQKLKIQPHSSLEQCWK

This assay concerns the target T1, rhesus (Macacca Mulatta) H3 receptor (Macaca mulatta, UniProt Q865E1).
T1 construct: pcDNA5/FRT/TO (Invitrogen) containing the rhesus monkey (Macacca Mulatta) 445 amino acid H3 receptor
The experiment in a line: Rhesus H3 [3H]-Methylhistamine radioligand binding assay (SPA). On the set-up: species or system rhesus monkey (Macacca Mulatta). Particulars: [3H]-Methylhistamine 2 nM, rhesus H3 membranes, Cheng-Prusoff; read-out: Affinity: ki in Rhesus H3 membrane binding ki. On the procedure:
Rhesus H3 membranes were prepared from the Flp-In T-REx 293 Cell Line (Invitrogen) stably transfected with pcDNA5/FRT/TO (Invitrogen) containing the rhesus monkey (Macacca Mulatta) 445 amino acid H3 receptor. (Genbank #AY231164). Stably transfected cultures were amplified in tissue culture flasks by standard tissue culture methods and induced to express rhesus H3 by exposure to 500 ng/ml tetracycline (Cellgro) for 24 hours. After induction, cells were dissociated from flasks utilizing Cell Stripper (Cellgro). Cells were centrifuged (1K×g, 5 min) and pellet frozen in an ethanol-dry ice bath to disrupt cell membranes. Frozen cell pellet was re-suspended in 5 mM HEPES (pH 7.4, Invitrogen) at 10 ml/1000 cm2 of harvested cells. The cell suspension was drawn through an 18 gauge needle (2-3×) followed by a 23 gauge needle (2-3×) to further disrupt cell membranes. The cell suspension was centrifuged (40K×g, 30 min). Cell membrane pellet was re-suspended in 5 mM HEPES (pH 7.4, Invitrogen) at a final protein concentration of 10 mg/ml. Rhesus H3 membranes were stored under liquid nitrogen prior to use in [3H]-Methylhistamine and GTPγS radioligand binding assays.
Rhesus H3 radioligand binding assay was performed using rhesus H3 receptor membranes (prepared as described above), [3H]-Methylhistamine (Perkin Elmer) and WGA SPA beads (wheat germ agglutinin scintillation proximity assay) beads (Amersham). The assay was performed in 96-well Opti-Plates (Packard). Each reaction contained 50 μl rhesus H3 membranes (20-30 μg total protein), 50 μl WGA SPA beads (0.1 μg) and 50 μl of 83Ci/mmol [^3H]-Methylhistamine (final concentration 2 nM) and 50 μl of tested compound. The compounds of this invention and/or vehicle were diluted with binding buffer from 10 mM DMSO stocks. Assay plates were sealed with TopSeal (Perkin Elmer) and mixed on shaker (25° C., 1 hour). Assay plates were read on TopCount scintillation counter (Packard). Results were analyzed by Hill transformation and Ki values were determined by Cheng-Prusoff equation.
As a reminder, the Ki is the equilibrium dissociation constant of an inhibitor or competing ligand from its target. As for `Cc1cc(N2CCC(CN3CCCC3C)C2)ccc1NC(=O)c1ccc(CO)cc1` (stereo not shown) [Example 11, 4-Hydroxymethyl-N-{2-methyl-4-[3-(2-methyl-pyrrolidin-1-ylmethyl)-pyrrolidin-1-yl]-phenyl}-benzamide], the Ki came out at 62.1 nM. Next, `Cc1ccc2oc(C(=O)Nc3ccc(N4CCC(CN5CCCC5C)C4)cc3C)cc(=O)c2c1` (stereo not shown) [Example 19, 6-Methyl-4-oxo-4H-chromene-2-carboxylic acid {2-methyl-4-[3-(2-methyl-pyrrolidin-1-ylmethyl)-pyrrolidin-1-yl]-phenyl}-amide]: 26.5 nM; `Cc1cc(N2CCC(CN3CCCC3C)C2)ccc1NC(=O)c1ccc2c(c1)CCO2` (stereo not shown) [Example 5, 2,3-Dihydro-benzofuran-5-carboxylic acid {2-methyl-4-[3-(2-methyl-pyrrolidin-1-ylmethyl)-pyrrolidin-1-yl]-phenyl}-amide]: 40.4 nM. Next, `Cc1cc(N2CCC(CN3CCCC3C)C2)ccc1NC(=O)c1ccc(COCc2ccccc2)nc1` (stereo not shown) [Example 6, 6-Benzyloxymethyl-N-{2-methyl-4-[3-(2-methyl-pyrrolidin-1-ylmethyl)-pyrrolidin-1-yl]-phenyl}-nicotinamide]: 95.4 nM; `Cc1cc(N2CCC(CN3CCCC3C)C2)ccc1NC(=O)c1ccc2c(c1)OCO2` (stereo not shown) [Example 7, Benzo[1,3]dioxole-5-carboxylic acid {2-methyl-4-[3-(2-methyl-pyrrolidin-1-ylmethyl)-pyrrolidin-1-yl]-phenyl}-amide]: 34.2 nM. Next, `COCCNC(=O)c1ccc(C(=O)Nc2ccc(N3CCC(CN4CCCC4C)C3)cc2C)cn1` (stereo not shown) [Example 14, Pyridine-2,5-dicarboxylic acid 2-[(2-methoxy-ethyl)-amide]5-({2-methyl-4-[3-(2-methyl-pyrrolidin-1-ylmethyl)-pyrrolidin-1-yl]-phenyl}-amide)]: 32.3 nM; `Cc1cc(N2CCC(CN3CCCC3C)C2)ccc1NC(=O)c1ccc(-n2cccc2)nc1` (stereo not shown) [Example 4, N-{2-Methyl-4-[3-(2-methyl-pyrrolidin-1-ylmethyl)-pyrrolidin-1-yl]-phenyl}-6-pyrrol-1-yl-nicotinamide]: 39.3 nM.

In the case of `Cc1cc(N2CCC(CN3CCCC3C)C2)ccc1NC(=O)c1ccc2c(c1)C(O)C(O)C(C)(C)O2` (stereo not shown) [Example 16, 3,4-Dihydroxy-2,2-dimethyl-chroman-6-carboxylic acid {2-methyl-4-[3-(2-methyl-pyrrolidin-1-ylmethyl)-pyrrolidin-1-yl]-phenyl}-amide], the Ki amounted to 67.6 nM. Next, `CC1=NN(c2ccc(C(=O)Nc3ccc(N4CCC(CN5CCCC5C)C4)cc3C)cc2)C(=O)C1` (stereo not shown) [Example 18, N-{2-Methyl-4-[3-(2-methyl-pyrrolidin-1-ylmethyl)-pyrrolidin-1-yl]-phenyl}-4-(3-methyl-5-oxo-4,5-dihydro-pyrazol-1-yl)-benzamide]: 59.4 nM; `Cc1cc(N2CCC(CN3CCCC3C)C2)ccc1NC(=O)c1ccc2c(c1)NC(=O)CNC2=O` (stereo not shown) [Example 13, 2,5-Dioxo-2,3,4,5-tetrahydro-1H-benzo[e][1,4]diazepine-8-carboxylic acid {2-methyl-4-[3-(2-methyl-pyrrolidin-1-ylmethyl)-pyrrolidin-1-yl]-phenyl}-amide]: 9.3 nM. As for `Cc1cc(N2CCC(CN3CCCC3C)C2)ccc1NC(=O)c1ccc(-n2ccnc2)cc1` (stereo not shown) [Example 9, 4-Imidazol-1-yl-N-{2-methyl-4-[3-(2-methyl-pyrrolidin-1-ylmethyl)-pyrrolidin-1-yl]-phenyl}-benzamide], the figure is 3.1 nM; as for `CC(=O)N1CCCC(c2ccc(C(=O)Nc3ccc(N4CCC(CN5CCCC5C)C4)cc3C)cc2)C1` (stereo not shown) [Example 10, 4-(1-Acetyl-piperidin-3-yl)-N-{2-methyl-4-[3-(2-methyl-pyrrolidin-1-ylmethyl)-pyrrolidin-1-yl]-phenyl}-benzamide], 29.8 nM. Turning to `COc1ccc2cc(C(=O)Nc3ccc(N4CCC(CN5CCCC5C)C4)cc3C)oc2c1` (stereo not shown) [Example 15, 6-Methoxy-benzofuran-2-carboxylic acid {2-methyl-4-[3-(2-methyl-pyrrolidin-1-ylmethyl)-pyrrolidin-1-yl]-phenyl}-amide], the Ki is 66.7 nM.

As to `Cc1nc2cc(C(=O)Nc3ccc(N4CCC(CN5CCCC5C)C4)cc3C)ccc2[nH]1` (stereo not shown) [Example 1, 2-M ethyl-1H-benzoimidazole-5-carboxylic acid {2-methyl-4-[3-(2-methyl-pyrrolidin-1-ylmethyl)-pyrrolidin-1-yl]-phenyl}-amide], the Ki was found to be 15.7 nM. With `Cc1ccc2c(O)c(C(=O)Nc3ccc(N4CCC(CN5CCCC5C)C4)cc3C)cnc2n1` (stereo not shown) [Example 17, 4-Hydroxy-7-methyl-[1,8]naphthyridine-3-carboxylic acid {2-methyl-4-[3-(2-methyl-pyrrolidin-1-ylmethyl)-pyrrolidin-1-yl]-phenyl}-amide], the Ki stood at 19.2 nM. As for `Cc1cc(N2CCC(CN3CCCC3C)C2)ccc1NC(=O)c1ccc2cc[nH]c2c1` (stereo not shown) [Example 8, 1H-Indole-6-carboxylic acid {2-methyl-4-[3-(2-methyl-pyrrolidin-1-ylmethyl)-pyrrolidin-1-yl]-phenyl}-amide], the figure is 18 nM; as for `Cc1cc(N2CCC(CN3CCCC3C)C2)ccc1NC(=O)c1cnc2cc(Cl)ccc2c1O` (stereo not shown) [Example 3, 7-Chloro-4-hydroxy-quinoline-3-carboxylic acid {2-methyl-4-[3-(2-methyl-pyrrolidin-1-ylmethyl)-pyrrolidin-1-yl]-phenyl}-amide], 94.7 nM.

In the case of `COc1ccc2[nH]c(C(=O)Nc3ccc(N4CCC(CN5CCCC5C)C4)cc3C)cc2c1` (stereo not shown) [Example 12, 5-Methoxy-1H-indole-2-carboxylic acid {2-methyl-4-[3-(2-methyl-pyrrolidin-1-ylmethyl)-pyrrolidin-1-yl]-phenyl}-amide], the Ki came out at 61.5 nM. Next, `Cc1cc(N2CCC(CN3CCCC3C)C2)ccc1NC(=O)c1cnc(NCCO)c(Cl)c1` (stereo not shown) [Example 2, 5-Chloro-6-(2-hydroxy-ethylamino)-N-{2-methyl-4-[3-(2-methyl-pyrrolidin-1-ylmethyl)-pyrrolidin-1-yl]-phenyl}-nicotinamide]: 51.2 nM.

Values taken from patent US8227504B2, “Substituted N-phenyl-pyrrolidinylmethylpyrrolidine amides and therapeutic use thereof” (Sanofi, priority 2007, dated 2012).
